For the experiment, the target named is RGS4 (single-cysteine RGS4 C95) (Rattus norvegicus, UniProt P49799, C71A/C132A/C148A/C183A/C197A/C204A). Put plainly: Flow cytometry protein interaction assay. Format: binding.

The text below walks through data of publication PMC6387623 (Proteins, 2018).

SMILES strings stand for the structures.

Chain of RGS4 (single-cysteine RGS4 C95) (P49799 52-205 C71A/C132A/C148A/C183A/C197A/C204A): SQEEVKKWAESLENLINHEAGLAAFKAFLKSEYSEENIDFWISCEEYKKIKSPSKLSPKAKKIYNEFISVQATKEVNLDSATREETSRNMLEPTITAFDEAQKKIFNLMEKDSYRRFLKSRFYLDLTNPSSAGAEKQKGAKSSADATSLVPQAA

What is called IC50 is the concentration at which inhibition is half-maximal. Molecule `Cc1ccc(-n2sc(=O)n(Cc3ccc(F)cc3)c2=O)cc1` [compound 1, CCG-50014] came in with an IC50 of roughly 4.5 µM.
